In one test the target is T1, STAT3:STAT3 (Homo sapiens, UniProt P40763).
T1 construct: Nuclear extracts containing active STAT1 and STAT3 were preincubated with or without peptidomimetics; endogenous in cells; host or cells: nuclear extracts
The experiment in a line: EMSA of STAT3:STAT3 dimer DNA binding, nuclear extracts preincubated with peptidomimetic, radiolabeled hSIE probe. It counts as biochemical. How it is done:
(§1) Evaluation was carried out through pre-incubation of specific concentrations of peptidomimetics with nuclear extracts containing STAT1 and STAT3 for 30 minutes at room temperature before incubation with radiolabeled hSIE oligonucleotide probes and ESMA analysis. Standard peptide synthetic procedures using HBTU and DIPEA were employed to furnish the library of functionalized inhibitors.
as §1
On the technique in general: In EMSA bound probe runs differently from free probe, usually more slowly.

In a further test the target is T2, STAT1:STAT1 (Homo sapiens, UniProt P42224).
T2 construct: Nuclear extracts containing active STAT1 and STAT3 were preincubated with or without peptidomimetics; endogenous in cells; host or cells: nuclear extracts
T2 sequence (P42224 2-750 limits assumed): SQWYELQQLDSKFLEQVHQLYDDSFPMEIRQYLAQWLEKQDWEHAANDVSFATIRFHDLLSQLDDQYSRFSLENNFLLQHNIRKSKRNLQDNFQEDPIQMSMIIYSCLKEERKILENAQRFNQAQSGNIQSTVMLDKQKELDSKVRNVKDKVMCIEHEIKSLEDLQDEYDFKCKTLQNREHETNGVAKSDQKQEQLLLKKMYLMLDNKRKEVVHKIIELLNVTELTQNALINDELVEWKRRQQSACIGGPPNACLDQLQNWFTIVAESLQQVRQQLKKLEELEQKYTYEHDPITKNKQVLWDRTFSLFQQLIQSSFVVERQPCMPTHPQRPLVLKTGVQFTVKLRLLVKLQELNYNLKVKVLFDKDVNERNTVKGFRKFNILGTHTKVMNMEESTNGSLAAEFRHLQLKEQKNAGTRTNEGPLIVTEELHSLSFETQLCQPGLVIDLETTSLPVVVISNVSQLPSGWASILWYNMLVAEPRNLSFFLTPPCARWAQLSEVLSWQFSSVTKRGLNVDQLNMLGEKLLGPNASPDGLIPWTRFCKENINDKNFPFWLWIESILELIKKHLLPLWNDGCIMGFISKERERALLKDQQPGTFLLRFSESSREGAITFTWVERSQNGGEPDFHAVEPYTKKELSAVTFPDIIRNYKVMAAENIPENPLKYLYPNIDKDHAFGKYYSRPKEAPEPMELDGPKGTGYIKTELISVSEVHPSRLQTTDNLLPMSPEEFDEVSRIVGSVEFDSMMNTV
The experiment in a line: EMSA of STAT1:STAT1 dimer DNA binding, nuclear extracts preincubated with peptidomimetic, radiolabeled hSIE probe. The format is biochemical. As to the method:
as §1, §1

Test [1] relates to v-Src transformed fibroblasts. The note with it: constitutively active STAT3-dependant v-Src transformed fibroblasts; cited from earlier work.

Several values for one entry are separate records, joined by “and”; a condition that tells them apart may be missing. Identical values can stand only once. Like-named read-outs stand apart in the source and are kept apart here.

T1 sequence (P40763 2-770 limits assumed, species assumed): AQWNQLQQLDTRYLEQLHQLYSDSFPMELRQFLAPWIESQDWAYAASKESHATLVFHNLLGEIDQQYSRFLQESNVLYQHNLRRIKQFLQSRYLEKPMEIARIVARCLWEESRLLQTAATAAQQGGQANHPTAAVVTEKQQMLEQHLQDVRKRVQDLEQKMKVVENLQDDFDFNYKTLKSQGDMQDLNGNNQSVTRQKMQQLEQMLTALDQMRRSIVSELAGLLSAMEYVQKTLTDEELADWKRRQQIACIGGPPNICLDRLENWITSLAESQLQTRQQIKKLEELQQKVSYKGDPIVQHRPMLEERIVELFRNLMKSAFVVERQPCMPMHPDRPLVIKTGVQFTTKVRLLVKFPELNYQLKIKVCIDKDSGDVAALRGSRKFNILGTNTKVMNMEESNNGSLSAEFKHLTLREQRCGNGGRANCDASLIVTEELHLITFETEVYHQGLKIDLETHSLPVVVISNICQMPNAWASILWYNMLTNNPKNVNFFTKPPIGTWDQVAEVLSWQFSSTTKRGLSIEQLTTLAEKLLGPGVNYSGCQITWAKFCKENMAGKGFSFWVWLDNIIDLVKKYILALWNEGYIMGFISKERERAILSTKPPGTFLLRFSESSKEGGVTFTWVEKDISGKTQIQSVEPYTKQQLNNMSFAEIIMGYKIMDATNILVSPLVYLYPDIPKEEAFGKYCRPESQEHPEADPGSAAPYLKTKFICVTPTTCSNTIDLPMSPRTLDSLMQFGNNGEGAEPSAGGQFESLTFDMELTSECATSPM

Regarding `COc1cccc(NC(=O)[C@H](CC(C)C)NC(=O)[C@H](Cc2ccc(OP(=O)(O)O)cc2)NC(=O)c2ccc(C#N)cc2)c1` [ISS840], the IC50 is 560 µM at STAT3:STAT3 (nuclear extracts preincubated 30 min at room temperature, hSIE probe, EMSA, means of three experiments, read-out: STAT3:STAT3 IC50 values); 1.4 µM and 1 µM on STAT1:STAT1 (nuclear extracts preincubated 30 min at room temperature, hSIE probe, EMSA, means of three experiments, read-out: STAT1:STAT1 IC50 values). For the compound `CC(C)CC(NC(=O)C(Cc1ccc(OP(=O)(O)O)cc1)NC(=O)c1ccc(C#N)cc1)C(=O)NC1CCCCC1` (stereo not shown) [ISS836], the half-inhibitory concentration (IC50) on STAT3:STAT3 was 605 µM; on STAT1:STAT1, 25 µM. With `CC(C)CC(NC(=O)C(Cc1ccc(OP(=O)(O)O)cc1)NC(=O)c1ccc(C#N)cc1)C(=O)O` (stereo not shown) [ISS610], the cell growth suppression result in test [1] is listed as “suppress cell growth significantly”. Consider `CC(C)CC(NC(=O)C(Cc1ccc(OP(=O)(O)O)cc1)NC(=O)c1ccc(C#N)cc1)C(=O)NC(C)C` (stereo not shown) [ISS834], for which the IC50 on STAT3:STAT3 was 760 µM; at STAT1:STAT1, 21 µM.

What is called IC50 is the point on the concentration scale where inhibition reaches its midpoint.

Source of the values: patent publication US8153596B2, “Use of SH2 STAT3/STAT1 peptidomimetics as anticancer drugs” (University of South Florida, priority 2006, dated 2012).
